From publication PMC13266999, “Designing Antibiotics with Inherent Resistance to Efflux as a Strategy to Revive Discovery against Multidrug-Resistant Pathogens” (Journal of Medicinal Chemistry, 2026)
Values after ≈ are worked out from the molar mass of the structure shown. Where two headings read alike, the source gives them in different places.

Key:
[1] = test system: Acinetobacter baumannii; assay: MIC (microbroth dilution); type: cell-based; conditions: read-out: MIC
How it was run: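 Microbroth dilution in tryptic soy broth; Streptococcus spp. in cation-adjusted Mueller Hinton broth with 2.5% lysed horse blood, inocula from overnight stationary-phase cultures. MIC is lowest concentration without visible growth, OD600 read. Parallel MICs run with 30 μg/mL polymyxin B nonapeptide (final) as outer-membrane permeabilizer.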

[2] = test system: S. aureus; assay: MIC (microbroth dilution); type: cell-based, Staphylococcus aureus; conditions: for MIC: read-out: MIC
How it was run: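 Broth microdilution MICs, defined as lowest compound level without visible growth (OD600 read), on bacteria grown overnight to stationary phase then diluted. Twofold compound dilutions; some wells also received PMBN, final 30 μg/mL, to permeabilize the outer membrane.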

Cc1cc(C)nc(N[C@@H]2CCN(c3c(F)cc4c(=O)c(C(=O)O)cn5c4c3OC[C@@H]5C)C2)n1 [Compound 50, (S)-10-((R)-3-((4,6-Dimethylpyrimidin-2-yl)amino)pyrrolidin-1-yl)-9-fluoro-3-methyl-7-oxo-2,3-dihydro-7H-[1,4]oxazino[2,3,4-ij]quinoline-6-carboxylic acid]
MIC ([1]; Acinetobacter baumannii, 86, oxa23): 8 µg/mL (≈ 17.6 µM)
MIC ([1]; Acinetobacter baumannii, 96, oxa23): 4 µg/mL (≈ 8.82 µM)
MIC ([1]; Acinetobacter baumannii, 113, oxa23): 4 µg/mL (≈ 8.82 µM)
MIC ([1]; Acinetobacter baumannii, A118): ≤ 0.06 µg/mL
MIC ([1]; Acinetobacter baumannii, A318): 16 µg/mL (≈ 35.3 µM)
MIC ([1]; Acinetobacter baumannii, A319): 4 µg/mL (≈ 8.82 µM)
MIC ([1]; Acinetobacter baumannii, A600 colR): 4 µg/mL (≈ 8.82 µM)
MIC ([1]; Acinetobacter baumannii, A601 colS): 0.125 µg/mL (≈ 0.276 µM)
MIC ([1]; Acinetobacter baumannii, ATCC17978, ATCC 17978): 0.25 µg/mL (≈ 0.551 µM)
MIC ([1]; Acinetobacter baumannii, BAA1709, BAA-1709): 0.125 µg/mL (≈ 0.276 µM)
MIC ([1]; Acinetobacter baumannii, BAA1710, BAA-1710 (AYE)): 8 µg/mL (≈ 17.6 µM)
MIC ([1]; Acinetobacter baumannii, NCTC10303, NCTC 10303): 0.125 µg/mL (≈ 0.276 µM)
MIC ([1]; Acinetobacter baumannii, NCTC13302, NCTC 13302, oxa24): 4 µg/mL (≈ 8.82 µM)
MIC ([1]; Acinetobacter baumannii, NCTC13424, NCTC 13424, oxa23): > 64 µg/mL
MIC ([1]; Acinetobacter baumannii, T strain): 8 µg/mL (≈ 17.6 µM)
MIC ([1]; Acinetobacter baumannii, UKA1, oxa23): 4 µg/mL (≈ 8.82 µM)
MIC ([1]; Acinetobacter baumannii, UKA2, Low resistance): 8 µg/mL (≈ 17.6 µM)
MIC ([1]; Acinetobacter baumannii, UKA9): 0.125 µg/mL (≈ 0.276 µM)
MIC ([1]; Acinetobacter baumannii, UKA12, oxa23): 4 µg/mL (≈ 8.82 µM)
MIC ([1]; Acinetobacter baumannii, UKA13, oxa23): 4 µg/mL (≈ 8.82 µM)
MIC ([1]; Acinetobacter baumannii, UKA15, oxa23): 4 µg/mL (≈ 8.82 µM)
MIC ([1]; Acinetobacter baumannii, UKA19): 0.5 µg/mL (≈ 1.1 µM)
MIC ([1]; Acinetobacter baumannii, W1): 8 µg/mL (≈ 17.6 µM)
fold improvement in activity compared to 46 [2]: 2–8 fold
fold difference in MIC, SA-1199B vs SA-1199 ([2]; NorA-overexpressing vs WT): no difference
MIC ([2]; Staphylococcus aureus, 1199, + 4% albumin): 0.06 µg/mL
MIC ([2]; Staphylococcus aureus, 1199b, + 4% albumin): 0.125 µg/mL
MIC ([2]; Staphylococcus aureus, ATCC6538P, ATCC 6538P): 0.03 µg/mL (≈ 0.0662 µM)
MIC ([2]; Staphylococcus aureus, ATCC9144, ATCC 9144, + 4% albumin): 0.125 µg/mL
MIC ([2]; Staphylococcus aureus, ATCC9144, ATCC 9144): ≤ 0.004 µg/mL
MIC ([2]; Staphylococcus aureus, ATCC10390, ATCC 10390): 0.03 µg/mL (≈ 0.0662 µM)
MIC ([2]; Staphylococcus aureus, ATCC13709, ATCC 13709): 0.03 µg/mL (≈ 0.0662 µM)
MIC ([2]; Staphylococcus aureus, ATCC19636, Smith, ATCC 19636): 0.03 µg/mL (≈ 0.0662 µM)
MIC ([2]; Staphylococcus aureus, ATCC27660, ATCC 27660): 0.03 µg/mL (≈ 0.0662 µM)
MIC ([2]; Staphylococcus aureus, ATCC29213, ATCC 29213 + 50% serum): 1 µg/mL
MIC ([2]; Staphylococcus aureus, ATCC29213, ATCC 29213): 0.03 µg/mL (≈ 0.0662 µM)
MIC ([2]; Staphylococcus aureus, ATCC 33591 / MRSA, MRSA (ATCC 33591)): 0.03 µg/mL (≈ 0.0662 µM)
MIC ([2]; Staphylococcus aureus, ATCC 33592 / MRSA, MRSA (ATCC 33592)): 0.03 µg/mL (≈ 0.0662 µM)
MIC ([2]; Staphylococcus aureus, ATCC33594, ATCC 33594): 0.03 µg/mL (≈ 0.0662 µM)
MIC ([2]; Staphylococcus aureus, ATCC49230, ATCC 49230): 0.03 µg/mL (≈ 0.0662 µM)
MIC ([2]; Staphylococcus aureus, MRSA / NRS 17 / VISA, VISA MRSA (NRS17)): 1 µg/mL (≈ 2.21 µM)
MIC ([2]; Staphylococcus aureus, MRSA / NRS 22 / USA600, USA600 MRSA GISA (NRS22)): 4 µg/mL (≈ 8.82 µM)
MIC ([2]; Staphylococcus aureus, MRSA / NRS 71, MRSA (NRS71)): 1 µg/mL (≈ 2.21 µM)
MIC ([2]; Staphylococcus aureus, MRSA / NRS 100, MRSA (COL; NRS100)): 0.03 µg/mL (≈ 0.0662 µM)
MIC ([2]; Staphylococcus aureus, MRSA / NRS 119, MRSA Linezolid-R (NRS119)): 1 µg/mL (≈ 2.21 µM)
MIC ([2]; Staphylococcus aureus, MRSA / NRS 123 / USA400, USA400 MRSA (NRS123)): 0.03 µg/mL (≈ 0.0662 µM)
MIC ([2]; Staphylococcus aureus, MRSA / NRS 127, LZD-NS MRSA (NRS127)): 4 µg/mL (≈ 8.82 µM)
MIC ([2]; Staphylococcus aureus, MRSA / NRS 269, TGC-NS MRSA (NRS269)): 2 µg/mL (≈ 4.41 µM)
MIC ([2]; Staphylococcus aureus, MRSA / NRS 271, Linezolid-R MRSA (NRS271)): 0.5 µg/mL (≈ 1.1 µM)
MIC ([2]; Staphylococcus aureus, MRSA / NRS 382 / USA100, USA100 MRSA (NRS382)): 0.5 µg/mL (≈ 1.1 µM)
MIC ([2]; Staphylococcus aureus, MRSA / NRS 383 / USA200, USA200 MRSA (NRS383)): 1 µg/mL (≈ 2.21 µM)
MIC ([2]; Staphylococcus aureus, MRSA / NRS 384 / USA300, USA300 MRSA (NRS384)): 0.03 µg/mL (≈ 0.0662 µM)
MIC ([2]; Staphylococcus aureus, MRSA / NRS 385 / USA500, USA500 MRSA (NRS385)): 0.5 µg/mL (≈ 1.1 µM)
MIC ([2]; Staphylococcus aureus, MRSA / NRS 386 / USA700, USA700 MRSA (NRS386)): 0.25 µg/mL (≈ 0.551 µM)
